Like-named read-outs stand apart in the source and are kept apart here.
Target: T1, human GPR119 receptor (Homo sapiens, UniProt Q8TDV5, S329A/T327A)
T1 construct: N-terminal leader […]; expressed in transfected cells
T1 sequence (Q8TDV5 with tags, fused parts or gaps T327A/S329A): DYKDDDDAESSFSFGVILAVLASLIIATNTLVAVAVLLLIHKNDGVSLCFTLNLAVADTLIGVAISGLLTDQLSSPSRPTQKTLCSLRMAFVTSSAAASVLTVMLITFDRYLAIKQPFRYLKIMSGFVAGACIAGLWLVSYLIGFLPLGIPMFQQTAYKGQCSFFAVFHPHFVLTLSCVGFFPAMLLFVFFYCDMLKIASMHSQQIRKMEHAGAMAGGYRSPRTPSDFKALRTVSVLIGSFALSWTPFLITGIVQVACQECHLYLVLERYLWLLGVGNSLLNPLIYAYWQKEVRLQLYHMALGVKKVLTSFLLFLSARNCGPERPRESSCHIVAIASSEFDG
Assay: cAMP assay (LANCE cAMP-384) in HEK293 cells stably expressing mutant human GPR119 receptor
Type: cell-based
Settings: for activation at 10 µM: HEK293, 20 min
How it was run: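 HEK293 cells stably expressing human GPR119 (T327A/S329A, modified N-terminus), 1000 cells/well, exposed to compound for 20 min at 37° C. cAMP quantified by LANCE TR-FRET against a standard curve; EC50 from 12 points, 30 μM to 100 pM, or % stimulation at 10 μM.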

[1] = the 36th table, compounds 66-1 to 66-51, read-out: EC50
[2] = the 19th table, unit inferred, read-out: EC 50
[3] = cAMP accumulation, HEK293 cells stably expressing mutant human GPR119, read-out: EC50
[4] = the 43rd table, compounds 75-1 to 75-38, read-out: EC50
[5] = the 34th table, compounds 65-1 to 65-24, read-out: EC50

SMILES: CC(C)CCN1CCC(ON=C2CCN(c3ccc(S(C)(=O)=O)cc3F)CC2)CC1 [Example 66-23]
- EC50 [1]: > 10000 nM

SMILES: CCc1cnc(N2CCC(ON=C3CCN(c4cc(F)c(C(=O)N5CCC[C@H](N)C5)cc4F)CC3)CC2)nc1 [Example 29-89]
- EC50 [2]: 74 nM

SMILES: CS(=O)(=O)c1cc(F)c(N2CCC(=NOC3CCN(Cc4ccc(Cl)cc4)CC3)CC2)cc1F [Example 66-56]
- EC50 (the 37th table, compounds 66-52 to 66-64, read-out: EC50): 50 nM

SMILES: CC(C)OC(=O)N1CCC(ON=C2CCN(c3cc(F)c(CN(C)CCO)cc3F)CC2)CC1 [Example 5-3]
- EC50 [3]: > 10000 nM

SMILES: COCCN(C)Cc1cc(F)c(N2CCC(=NOC3CCN(C(=O)OC(C)C)CC3)CC2)cc1F [Example 5-5]
- EC50 [3]: > 10000 nM

SMILES: COC(=O)CCNCc1cc(F)c(N2CCC(=NOC3CCN(C(=O)OC(C)C)CC3)CC2)cc1F [Example 5-7]
- EC50 [3]: 1150 nM

SMILES: CC(C)OC(=O)N1CCC(ON=C2CCN(c3cc(F)c(CNS(C)(=O)=O)cc3F)CC2)CC1 [Example 16-3]
- EC50 [3]: 51 nM

SMILES: CC(C)OC(=O)N1CCC(ON=C2CCN(c3cc(F)c(C(=O)NCC(=O)O)cc3F)CC2)CC1 [Example 30-1, 4-{1-[4-(Carboxymethyl-carbamoyl)-2,5-difluoro-phenyl]-piperidin-4-ylideneaminooxy}-piperidine-1-carboxylic acid isopropyl ester]
- EC50 [3]: 1130 nM

SMILES: CS(=O)(=O)c1ccc(N2CCC(=NOC3CCN(C(=O)OC4CCNC4)CC3)CC2)c(F)c1 (stereo not shown) [Example 64-36]
- EC50 (the 33rd table, read-out: EC50): > 10000 nM

SMILES: CCc1cnc(N2CCC(ON=C3CCN(c4cc(F)c(CC(=O)N5CCC(N)CC5)cc4F)CC3)CC2)nc1 [Example 77-2]
- EC50 (the 44th table, compounds 77-1 to 77-14, read-out: EC50): 22 nM

SMILES: CC(C)OC(=O)N1CCC(ON=C2CCN(c3cc(F)c(S(C)(=O)=O)cc3F)CC2)CC1 [Example 46-2]
- EC50 (the 26th table, read-out: EC50): 28 nM

SMILES: CS(=O)(=O)c1ccc(N2CCC(=NOC3CCN(C(=O)OCCC4CC4)CC3)CC2)c(F)c1 [Example 64-39]
- EC50 (the 33rd table, read-out: EC50): 127 nM

SMILES: Cn1cc(CN2CCC(ON=C3CCN(c4ccc(S(C)(=O)=O)cc4F)CC3)CC2)cn1 [Example 66-10]
- EC50 [1]: > 10000 nM

SMILES: CC(C)OC(=O)N1CCC(ON=C2CCN(c3cc(F)c(S(=O)(=O)C4CC4)cc3F)CC2)CC1 [Example 47-1, 4-[1-(4-Cyclopropanesulfonyl-2,5-difluoro-phenyl)-piperidin-4-ylideneaminooxy]-piperidine-1-carboxylic acid isopropyl ester]
- EC50 [3]: 43 nM

SMILES: CC(C)OC(=O)N1CCC(ON=C2CCN(c3cc(F)c(Cn4ccnc4)cc3F)CC2)CC1 [Example 14-4]
- EC50 [3]: 268 nM

SMILES: CC(C)OC(=O)N1CCC(ON=C2CCN(c3cc(F)c(C(=O)NCCCN)cc3F)CC2)CC1 [Example 31-3]
- EC50 [3]: 542 nM

SMILES: Cc1ncccc1N1CCC(=NOC2CCN(C(=O)OC(C)C)CC2)CC1 [Example 4-1, Isopropyl 4-(2′-Methyl-2,3,5,6-tetrahydro-[1,3′]bipyridinyl-4-ylideneaminooxy)piperidine-1-carboxylate]
- EC50 [3]: 4800 nM

SMILES: CC(C)OC(=O)N1CCC(ON=C2CCN(c3cc(F)c(C(=O)NCCN)cc3F)CC2)CC1 [Example 29-6]
- EC50 (the 15th table, read-out: EC50): 381 nM

SMILES: CCc1cnc(N2CCC(ON=C3CCN(c4cc(F)c(C(=O)N5CC[C@H](N)C5)cc4F)CC3)CC2)nc1 [Example 29-119]
- EC50 [2]: 75 nM

SMILES: CC(C)OC(=O)N1CCC(ON=C2CCN(c3cc(F)c(CC(=O)NC4CCNCC4)cc3F)CC2)CC1 [Example 75-18]
- EC50 [4]: 98 nM

SMILES: CC(C)OC(=O)N1CCC(ON=C2CCN(c3cc(F)c(CN(C)CCCC(=O)O)cc3F)CC2)CC1 [Example 5-10]
- EC50 [3]: > 10000 nM

SMILES: Cc1nnn(Cc2cnc(N3CCC(=NOC4CCN(C(=O)OC(C)C)CC4)CC3)c(F)c2)n1 [Example 54-5]
- activation at 10 µM (10 μM, the 30th table, read-out: stimulation in % at 10 μM): 75%

SMILES: CC(C)OC(=O)N1CCC(ON=C2CCN(c3cc(F)c(NC(N)=O)cc3F)CC2)CC1 [Example 37-1, 4-[1-(2,5-Difluoro-4-ureido-phenyl)-piperidin-4-ylideneaminooxy]-piperidine-1-carboxylic acid isopropyl ester]
- EC50 [3]: 71 nM

SMILES: CS(=O)(=O)c1ccc(N2CCC(=NOC3CCN(CC(=O)Nc4ccccc4)CC3)CC2)c(F)c1 [Example 65-2]
- EC50 [5]: > 10000 nM

SMILES: CC(CN(C)C)OC(=O)N1CCC(ON=C2CCN(c3ccc(S(C)(=O)=O)cc3F)CC2)CC1 (stereo not shown) [Example 64-14]
- EC50 (the 33rd table, read-out: EC50): > 10000 nM

SMILES: CCc1cnc(N2CCC(ON=C3CCN(c4cc(F)c(C(=O)NCC5CCCNC5)cc4F)CC3)CC2)nc1 (stereo not shown) [Example 29-93]
- EC50 [2]: 56 nM

SMILES: CC(C)OC(=O)N1CCC(ON=C2CCN(c3cc(F)c(-c4ccc[nH]4)cc3F)CC2)CC1 [Example 27-7]
- EC50 [3]: 436 nM

SMILES: CCOc1ccc(CN2CCC(ON=C3CCN(c4ccc(S(C)(=O)=O)cc4F)CC3)CC2)cc1 [Example 66-46]
- EC50 [1]: 418 nM

SMILES: CC(C)OC(=O)N1CCC(ON=C2CCN(c3cc(F)c(Cn4ccnn4)cc3F)CC2)CC1 [Example 14-12]
- EC50 [3]: 32 nM

SMILES: CC(C)OC(=O)N1CCC(ON=C2CCN(c3cc(F)c(N(S(C)(=O)=O)S(C)(=O)=O)cc3F)CC2)CC1 [Example 2-63]
- EC50 [3]: > 10000 nM

SMILES: CC(=O)Nc1ccc(CN2CCC(ON=C3CCN(c4ccc(S(C)(=O)=O)cc4F)CC3)CC2)cc1 [Example 66-39]
- EC50 [1]: > 10000 nM

SMILES: CCC(C)COC(=O)N1CCC(ON=C2CCN(c3ccc(S(C)(=O)=O)cc3F)CC2)CC1 (stereo not shown) [Example 64-47]
- EC50 (the 33rd table, read-out: EC50): 43 nM

SMILES: Cc1ncccc1COC(=O)N1CCC(ON=C2CCN(c3ccc(S(C)(=O)=O)cc3F)CC2)CC1 [Example 64-26]
- EC50 (the 33rd table, read-out: EC50): > 10000 nM

SMILES: CC(C)OC(=O)N1CCC(ON=C2CCN(c3cc(F)c(CC(=O)NCC4CCNCC4)cc3F)CC2)CC1 [Example 75-26]
- EC50 [4]: 236 nM

SMILES: CC(C)OC(=O)N1CCC(ON=C2CCN(c3c(C(=O)O)ccnc3Cl)CC2)CC1 [Example 2-59]
- EC50 [3]: > 10000 nM

SMILES: Cn1cccc1CN1CCC(ON=C2CCN(c3ccc(S(C)(=O)=O)cc3F)CC2)CC1 [Example 66-1, 1-(2-Fluoro-4-methanesulfonyl-phenyl)-piperidin-4-one O-[1-(1-methyl-1H-Pyrrol-2-ylmethyl)-piperidin-4-yl]-oxime]
- EC50 [1]: > 10000 nM

SMILES: COC(=O)CC(C)OC(=O)N1CCC(ON=C2CCN(c3ccc(S(C)(=O)=O)cc3F)CC2)CC1 (stereo not shown) [Example 64-22]
- EC50 (the 33rd table, read-out: EC50): 193 nM

SMILES: CCCCOC(=O)N1CCC(ON=C2CCN(c3ccc(S(C)(=O)=O)cc3F)CC2)CC1 [Example 64-45]
- EC50 (the 33rd table, read-out: EC50): 54 nM

SMILES: CS(=O)(=O)c1ccc(N2CCC(=NOC3CCN(Cc4ccccc4F)CC3)CC2)c(F)c1 [Example 66-16]
- EC50 [1]: 560 nM

SMILES: CS(=O)(=O)c1ccc(N2CCC(=NOC3CCN(c4ncccn4)CC3)CC2)c(F)c1 [Example 63-8]
- EC50 (the 32nd table, read-out: EC50): 238 nM

SMILES: CS(=O)(=O)c1ccc(N2CCC(=NOC3CCN(S(=O)(=O)c4ccccc4)CC3)CC2)c(F)c1 [Example 65-18]
- EC50 [5]: 1100 nM

SMILES: CC(C)OC(=O)N1CCC(ON=C2CCN(c3cc(F)c(C#N)cc3F)CC2)CC1 [Example 2-2]
- EC50 [3]: 397 nM

SMILES: CC(C)OC(=O)N1CCC(ON=C2CCN(c3cc(F)c(NS(C)(=O)=O)cc3F)CC2)CC1 [Example 44-1, 4-[1-(2,5-Difluoro-4-methanesulfonylamino-phenyl)-piperidin-4-ylideneaminooxy]-piperidine-1-carboxylic acid isopropyl ester]
- EC50 [3]: 170 nM

SMILES: CS(=O)(=O)c1ccc(N2CCC(=NOC3CCN(C(=O)N4CCCC4)CC3)CC2)c(F)c1 [Example 73-2]
- EC50 (the 41st table, compounds 73-1, 73-2, unit inferred, read-out: EC50): 1510 nM

SMILES: Cc1nc(CN2CCC(ON=C3CCN(c4ccc(S(C)(=O)=O)cc4F)CC3)CC2)cs1 [Example 66-14]
- EC50 [1]: > 10000 nM

SMILES: CC(C)OC(=O)N1CCC(ON=C2CCN(c3ncc(Cl)cc3F)CC2)CC1 [Example 2-68]
- activation at 10 µM (single concentration 10 μM, given where no EC50 value could be determined, read-out: % stimulation at 10 μM): 63%

Reference: patent US8293729B2 (Boehringer Ingelheim International GmbH, priority 2009, dated 2012)
